This note sets out measurements from patent publication US8309111B2, “High alcohol content foaming compositions with silicone-based surfactants” (Deb Worldwide Healthcare Inc., priority 2005, dated 2012).

A short description of the data set: Foam evaluation of the prepared solutions: whether foam was produced, and foam description and quality. In kind it is physicochemical. On the procedure: Examples 1 through 12 were prepared to illustrate the ability to produce alcohol-based disinfecting formulations which can be dispensed as foams using different surfactants and a solution of water and 50% ethanol. Examples 13 through 16 illustrate increasing concentrations of a silicone-based surfactant to produce foam with 40% ethanol. Examples 17 through 32 show increasing concentrations of ethanol with different silicone-based surfactants to produce foam. Examples 33 through 36 illustrate increasing concentrations of a silicone-based surfactant to produce acceptable foam at 62% ethanol. Examples 37 through 52 illustrate the ability to produce foam using different surfactants and a solution of 70% v/v Isopropanol. All parts and percentages are expressed by weight unless otherwise indicated.
The following examples were intended to evaluate the foaming ability of different groups of silicone surfactants with different combinations of ethanol, n-propyl alcohol and Isopropyl alcohol. They were also designed to asses the effect in the after feel as well as in the foam quality of some emollients and humectants, lipids, and other cosmetic type desired ingredients to be used with a leave-on hand sanitizer product. […]
The solutions prepared, were evaluated as to whether foam was produced or not and if so, then the foam produced was described as follows: […]

With Cocamidopropyl betaine, the “Foam result compared with silicone-based surfactants” value (CAPB alone, 40% ethanol, 3% CAPB, versus 60% v/v ethanol with less than 1.0% silicone-based surfactant) is listed as “unable to produce as good results”. In addition, where the note is “above 40% ethanol”, the Acceptable foam entry was “does not give any acceptable foam”.
